Data as given in patent US20070128217A1 (priority 2003, published 2007).

Key:
[1] = system: rabbit serum obtained by immunizing a rabbit with the SARS-CoV strain Frankfurt 1; assay type: binding; design: Binding of a rabbit serum to linear peptides / Binding of a rabbit serum to looped peptides / Rabbit serum linear peptides / Rabbit serum looped peptides / Binding of a rabbit serum to linear peptides of protein N of SARS-CoV Urbani (Rabbit serum linear peptides) / Binding of a rabbit serum to looped/cyclic peptides of protein N of SARS-CoV Urbani (Rabbit serum looped peptides): unit not given here
[2] = system: control sera (pooled serum of ten healthy LUMC hospital workers; commercial negative donor pooled serum from the Dutch bloodbank); assay type: binding, human; design: Binding of Control serum LUMC to linear peptides / Binding of Control serum Blood-bank to linear peptides / Binding of Control serum LUMC to looped peptides / Binding of Control Serum Blood-Bank to Looped peptides / Binding of Control serum LUMC to linear peptides of the protein M of SARS-CoV Urbani / Binding of Control serum Blood-bank to linear peptides of the protein M of SARS-CoV Urbani / Binding of Control serum LUMC to looped peptides of the protein M of SARS-CoV Urbani / Binding of Control Serum Blood-Bank to Looped peptides of the protein M of SARS-CoV Urbani: unit not given here
[3] = system: antibodies in sera from SARS patients (sera 1a, 1b, 2, 6, 37, 62, London, SARS-yellow, SARS-green); assay type: binding, human; design: Binding of serum 6 to linear peptides of protein X1 of SARS-CoV Urbani / Binding of serum 37 to linear peptides of protein X1 of SARS-CoV Urbani / Binding of serum 6 to looped/cyclic peptide (PEPSCAN-ELISA) / Binding of serum 37 to looped/cyclic peptide (PEPSCAN-ELISA) / Binding of serum 37 to looped/cyclic peptides of protein X1 of SARS-CoV Urbani / Binding of serum 6 to linear peptides of protein X2 / Binding of serum 37 to linear peptides of protein X2 / Binding of serum 37 to looped/cyclic peptides of protein X2 of SARS-CoV Urbani / Binding of serum 6 to linear peptides of protein M of SARS-CoV Urbani / Binding of serum 37 to linear peptides of protein M of SARS-CoV Urbani / Binding of serum 6 to looped/cyclic peptides of protein M of SARS-CoV Urbani / Binding of serum 37 to looped/cyclic peptides of protein M of SARS-CoV Urbani / Binding of serum 6 to linear peptides of protein X3 of SARS-CoV Urbani / Binding of serum 37 to linear peptides of protein X3 of SARS-CoV Urbani / Binding of serum 37 to looped/cyclic peptides of protein X3 of SARS-CoV Urbani / Binding of serum 6 to linear peptides of protein X4 of SARS-CoV Urbani / Binding of serum 37 to linear peptides of protein X4 of SARS-CoV Urbani / Binding of serum 37 to looped/cyclic peptides of protein X4 of SARS-CoV Urbani / Binding of serum 6 to linear peptides of protein X5 of SARS-CoV Urbani / Binding of serum 37 to linear peptides of protein X5 of SARS-CoV Urbani / Binding of serum 37 to looped/cyclic peptides of protein X5 of SARS-CoV Urbani / Binding of serum 6 to linear peptides of protein N of SARS-CoV Urbani / Binding of serum 37 to linear peptides of protein N of SARS-CoV Urbani / Binding of serum 6 to linear peptide (PEPSCAN-ELISA) / Binding of serum 1a to looped/cyclic peptides of protein N of SARS-CoV Urbani / Binding of serum 1b to looped/cyclic peptides of protein N of SARS-CoV Urbani / Binding of serum 2 to looped/cyclic peptides of protein N of SARS-CoV Urbani / Binding of serum 6 to looped/cyclic peptides of protein N of SARS-CoV Urbani / Binding of serum 37 to looped/cyclic peptides of protein N of SARS-CoV Urbani / Binding of serum 62 to looped/cyclic peptides of protein N of SARS-CoV Urbani / Binding of serum London to looped/cyclic peptides of protein N of SARS-CoV Urbani / Binding of serum SARS-green to looped/cyclic peptides of protein N of SARS-CoV Urbani: unit not given here
[4] = system: recombinant human anti-SARS-CoV antibody 03-018; assay type: binding; design: Binding of antibody 03-018 to linear peptides of the N protein of SARS-CoV Urbani / Binding of antibody 03-018 to looped/cyclic peptides of the N protein of SARS-CoV Urbani: unit not given here

Sequence	Binding of a rabbit serum to linear peptides of protein N of SARS-CoV Urbani (Rabbit serum linear peptides) [1]	Binding of a rabbit serum to looped/cyclic peptides of protein N of SARS-CoV Urbani (Rabbit serum looped peptides) [1]	Binding of serum 1a to linear peptides of protein N of SARS-CoV Urbani [3]	Binding of serum 1a to looped/cyclic peptides of protein N of SARS-CoV Urbani [3]	Binding of serum 1b to linear peptides of protein N of SARS-CoV Urbani [3]	Binding of serum 1b to looped/cyclic peptides of protein N of SARS-CoV Urbani [3]	Binding of serum 2 to linear peptides of protein N of SARS-CoV Urbani [3]	Binding of serum 2 to looped/cyclic peptides of protein N of SARS-CoV Urbani [3]	Binding of serum 6 to linear peptides of protein N of SARS-CoV Urbani [3]	Binding of serum 6 to looped/cyclic peptides of protein N of SARS-CoV Urbani [3]	Binding of serum 37 to linear peptides of protein N of SARS-CoV Urbani [3]	Binding of serum 37 to looped/cyclic peptides of protein N of SARS-CoV Urbani [3]	Binding of serum 62 to linear peptides of protein N of SARS-CoV Urbani [3]	Binding of serum 62 to looped/cyclic peptides of protein N of SARS-CoV Urbani [3]	Binding of serum London to linear peptides of protein N of SARS-CoV Urbani [3]	Binding of serum London to looped/cyclic peptides of protein N of SARS-CoV Urbani [3]	Binding of serum SARS-green to linear peptides of protein N of SARS-CoV Urbani [3]	Binding of serum SARS-green to looped/cyclic peptides of protein N of SARS-CoV Urbani [3]	Binding of serum SARS-yellow to linear peptides of protein N of SARS-CoV Urbani [3]	Binding of serum SARS-yellow to looped/cyclic peptides of protein N of SARS-CoV Urbani [3]	also measured
RIGMEVTPSGTWLTY	0.0	0.5	0.2	0.4	0.1	0.2	0.1	0.5	0.1	0.3	0.4	0.7	0.4	0.8	0.3	0.6	0.5	0.5	0.9	0.5	Control Serum Blood-Bank Looped peptides [2]: 0.8; Control serum Blood-bank linear peptides [2]: 0.5; Control serum LUMC linear peptides [2]: 0.5; Control serum LUMC looped peptides [2]: 0.7; Binding of antibody 03-018 to linear peptides of the N protein of SARS-CoV Urbani [4]: 0.1; Binding of antibody 03-018 to looped/cyclic peptides of the N protein of SARS-CoV Urbani [4]: 0.2
RITFGGPTDSTDNNQ	0.3	0.1	0.2	0.3	0.1	0.2	0.2	0.2	0.1	0.2	0.8	0.5	0.6	0.3	0.5	0.3	0.5	0.4	1.3	0.2	Binding of Control Serum Blood-Bank to Looped peptides [2]: 0.6; Binding of Control serum Blood-bank to linear peptides [2]: 0.6; Binding of Control serum LUMC to linear peptides [2]: 0.5; Binding of Control serum LUMC to looped peptides [2]: 0.5; Recognition of the peptide by antibody 03-018 [4]: recognized
RPQGLPNNTASWFTA	0.1	0.5	0.3	0.5	0.1	0.3	0.2	0.5	0.2	0.4	0.7	0.9	0.7	0.8	0.5	0.5	0.3	0.5	0.4	0.7	Binding of Control Serum Blood-Bank to Looped peptides [2]: 0.9; Binding of Control serum Blood-bank to linear peptides [2]: 0.8; Binding of Control serum LUMC to linear peptides [2]: 0.8; Binding of Control serum LUMC to looped peptides [2]: 0.9; Binding of antibody 03-018 to linear peptides of the N protein of SARS-CoV Urbani [4]: 0.1; Binding of antibody 03-018 to looped/cyclic peptides of the N protein of SARS-CoV Urbani [4]: 0.2
